Test [1] addresses T1, 5-HT1A serotonin receptor (Rattus norvegicus, UniProt P19327).
T1 construct: following the procedure of Hall et al., J. Neurochem; 44 1685 (1985); from tissue
T1 sequence (P19327 1-422): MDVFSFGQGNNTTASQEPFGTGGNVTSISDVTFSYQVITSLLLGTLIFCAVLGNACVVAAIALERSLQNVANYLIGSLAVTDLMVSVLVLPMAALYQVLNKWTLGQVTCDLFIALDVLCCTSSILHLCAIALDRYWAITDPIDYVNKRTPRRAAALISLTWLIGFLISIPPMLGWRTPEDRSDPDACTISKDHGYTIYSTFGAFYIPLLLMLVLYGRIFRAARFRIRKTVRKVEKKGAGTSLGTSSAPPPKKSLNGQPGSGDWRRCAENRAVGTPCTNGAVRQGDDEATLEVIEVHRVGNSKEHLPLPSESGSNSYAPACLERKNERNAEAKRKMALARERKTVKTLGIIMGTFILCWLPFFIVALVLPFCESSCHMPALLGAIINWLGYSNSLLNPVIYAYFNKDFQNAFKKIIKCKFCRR
As to the kind of experiment: 5-HT1A receptor binding: displacement of [3H] 8-OHDPAT. The settings on record: procedure of Hall et al. The method, then:
High affinity for the serotonin 5-HT1A receptor for the compounds of this invention was established by testing them in accordance with the standard pharmacological test procedure in which the compound's ability to displace [^3 H] 8-OHDPAT (dipropylaminotetralin) from the 5-HT1A serotonin receptor was determined following the procedure of Hall et al., J. Neurochem. 44 1685 (1985). […] The anxiolytic activity of buspirone is believed to be, at least partially, due to its 5-HT1A receptor affinity [VanderMaelen et al., Eur. J. Pharmacol. 1986, 129 (123-130)].

Test [2] addresses T1, 5-HT1A serotonin receptor. The following applies: buspirone, literature (VanderMaelen et al. 1986); cited from earlier work.

Molecules are shown by their SMILES.

Regarding `Cn1c2c(c3ccccc31)CCN(CCC(C(=O)N1CCCCCC1)c1ccccc1)C2` (centres unmarked) [Example 2, 1-Azepan-1-yl-4-(9-methyl-1,3,4,9-tetrahydro-2H-pyrido[3.4-b]-indol-2-yl]-2-phenyl-butan-1-one], the IC50 in test [1] came out at 0.0333 µM. The same measure, in the same setting: the figure for `O=C(C(CCN1CCc2c([nH]c3ccccc23)C1)c1ccccc1)N1CCCCCC1` (centres unmarked) [Example 1, 1-Azepan-1-yl-2-phenyl-4-(1,3,4,9-tetrahydro-2H-pyrido[3.4-b]indol-2-yl]-butan-1-one] is 0.0309 µM; for `O=C(C(CCN1CC[C@H]2c3ccccc3N[C@H]2C1)c1ccccc1)N1CCCCCC1` (relative stereo) [Example 4, 1-Azepan-1-yl-4-((cis)-1,3,4,4a,9,9a-hexahydro-2H-pyrido[3,4-b]indol-2-yl)-2-phenyl-butan-1-one] it is 0.0674 µM. For `O=C1CC2(CCCC2)CC(=O)N1CCCCN1CCN(c2ncccn2)CC1` [buspirone], the “affinity for the 5-HT1A serotonin receptor (in words)” value in test [2] is “potent affinity”. `CN1c2ccccc2[C@@H]2CCN(CCC(C(=O)N3CCCCCC3)c3ccccc3)C[C@H]21` (relative stereo) [Example 3, 1-Azepan-1-yl-4-((trans)-9-methyl-1,3,4,4a,9,9a-hexahydro-2H-pyrido[3,4-b]indol-2-yl)-2-phenyl-butan-1-one] registered an IC50 in test [1] of 0.0371 µM.

These data come from patent US5466688A, “Pyrido[3,4-B]indole derivatives as serotonergic agents” (American Home Products Corporation, priority 1994, dated 1995).
